Test results taken from patent publication US11377442B2, “Small molecule agonists and antagonists of NR2F6 activity” (ZANDER THERAPEUTICS, INC., priority 2016, dated 2022).
Like-named read-outs stand apart in the source and are kept apart here.

How the values were obtained:
Format in all cases: cell-based
NR2F6 = target: T1, NR2F6 (Homo sapiens, UniProt P10588); test: NR2F6 agonist screening, Firefly signal cmpd/DMSO; settings: F4
T1 construct: expressed in transfected cells; also transient transfection
T1 sequence (P10588 1-404): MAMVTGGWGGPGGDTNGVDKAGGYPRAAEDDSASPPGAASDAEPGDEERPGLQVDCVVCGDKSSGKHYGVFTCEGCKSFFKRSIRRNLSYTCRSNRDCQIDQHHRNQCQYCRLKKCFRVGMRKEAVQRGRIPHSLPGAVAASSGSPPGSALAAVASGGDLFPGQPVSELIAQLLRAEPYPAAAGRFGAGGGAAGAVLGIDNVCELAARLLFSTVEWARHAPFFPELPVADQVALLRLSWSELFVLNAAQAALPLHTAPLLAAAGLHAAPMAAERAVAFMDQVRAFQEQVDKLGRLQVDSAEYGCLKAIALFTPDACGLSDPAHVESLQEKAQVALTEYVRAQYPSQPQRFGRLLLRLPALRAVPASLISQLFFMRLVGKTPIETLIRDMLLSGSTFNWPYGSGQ

Renilla = Renilla signal in NR2F6 agonist screening, cmpd/DMSO; settings: Renilla, F4
HEK293 pGL4 = test: Firefly_pGL signal, cmpd/DMSO (pGL4 control cells); settings: Homo sapiens
NR2F6 LBD = target: T2, NR2F6 LBD (Homo sapiens, UniProt P10588); test: NR2F6 LBD transient transfection; settings: LBD
T2 construct: expressed in transfected cells
T2 sequence (P10588 165-393 limits assumed): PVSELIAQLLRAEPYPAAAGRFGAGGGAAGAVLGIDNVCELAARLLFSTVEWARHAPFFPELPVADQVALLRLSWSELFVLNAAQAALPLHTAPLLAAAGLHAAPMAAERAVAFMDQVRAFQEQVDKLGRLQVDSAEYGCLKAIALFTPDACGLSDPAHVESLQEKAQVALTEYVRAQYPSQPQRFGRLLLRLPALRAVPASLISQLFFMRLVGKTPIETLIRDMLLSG
How it was run: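 LBD-transfected cells treated at 40, 10, 2 and 0.5 μM (4 replicates); cytotoxicity measured in parallel, normalized to DMSO (0%) and zero signal (100%). Higher concentrations excluded where signal loss reflected toxicity.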

[1] = read-out: Renilla, F4, cmpd/DMSO (mean)
[2] = 1% FBS, read-out: Renilla, F4, 1% FBS, cmpd/DMSO (mean)
[3] = 10% FBS, read-out: Renilla, F4, 10% FBS, cmpd/DMSO (mean)
[4] = HEK293, 0.5 uM, pGL4, read-out: Firefly pGL4, cmpd/DMSO (mean)
[5] = HEK293, 2 uM, pGL4, read-out: Firefly pGL4, cmpd/DMSO (mean)
[6] = HEK293, 10 uM, pGL4, read-out: Firefly pGL4, cmpd/DMSO (mean)
[7] = HEK293, 40 uM, pGL4, read-out: Firefly pGL4, cmpd/DMSO (mean)
[8] = HEK293, pGL4, 1% FBS, 0.5 uM, read-out: Firefly, pGL4, 1% FBS, cmpd/DMSO (mean)
[9] = HEK293, pGL4, 1% FBS, 2 uM, read-out: Firefly, pGL4, 1% FBS, cmpd/DMSO (mean)
[10] = HEK293, pGL4, 1% FBS, 10 uM, read-out: Firefly, pGL4, 1% FBS, cmpd/DMSO (mean)
[11] = HEK293, pGL4, 1% FBS, 40 uM, read-out: Firefly, pGL4, 1% FBS, cmpd/DMSO (mean)
[12] = HEK293, pGL4, 10% FBS, 0.5 uM, read-out: Firefly, pGL4, 10% FBS, cmpd/DMSO (mean)
[13] = HEK293, pGL4, 10% FBS, 2 uM, read-out: Firefly, pGL4, 10% FBS, cmpd/DMSO (mean)
[14] = HEK293, pGL4, 10% FBS, 10 uM, read-out: Firefly, pGL4, 10% FBS, cmpd/DMSO (mean)
[15] = HEK293, pGL4, 10% FBS, 40 uM, read-out: Firefly, pGL4, 10% FBS, cmpd/DMSO (mean)

Cc1cc(S(=O)(=O)[C@H]2CS(=O)(=O)C[C@@H]2NCC2CCCO2)ccc1F (some centres unmarked) [Compound D115]
2.1: fold induction at 40 µM (HEK293 pGL4; [15])
2.2: Firefly F4, cmpd/DMSO (mean) (NR2F6; 40 uM) | Firefly LBD, cmpd/DMSO (mean) (NR2F6 LBD; 40 uM)
1.3: Firefly, F4, 10% FBS, cmpd/DMSO (mean) (NR2F6; 2 uM) | Firefly, F4, 10% FBS, cmpd/DMSO (mean) (NR2F6; 40 uM) | fold induction at 40 µM (Renilla; [3]) | fold induction at 10 µM (HEK293 pGL4; [6]) | Firefly LBD, cmpd/DMSO (mean) (NR2F6 LBD; 10 uM)
1: fold induction at 0.5 µM (Renilla; [1]) | fold induction at 2 µM (Renilla; [1]) | fold induction at 10 µM (Renilla; [1]) | fold induction at 2 µM (Renilla; [2]) | fold induction at 0.5 µM (Renilla; [3]) | fold induction at 2 µM (Renilla; [3])
1.0: Firefly F4, cmpd/DMSO (mean) (NR2F6; 0.5 uM) | Firefly, F4, 1% FBS, cmpd/DMSO (mean) (NR2F6; 0.5 uM)
1.8: Firefly, F4, 1% FBS, cmpd/DMSO (mean) (NR2F6; 40 uM)
1.4: Firefly F4, cmpd/DMSO (mean) (NR2F6; 10 uM)
1.1: Firefly F4, cmpd/DMSO (mean) (NR2F6; 2 uM) | Firefly, F4, 1% FBS, cmpd/DMSO (mean) (NR2F6; 10 uM) | fold induction at 40 µM (Renilla; [1]) | fold induction at 0.5 µM (Renilla; [2]) | fold induction at 10 µM (Renilla; [3]) | fold induction at 0.5 µM (HEK293 pGL4; [8])
1.2: fold induction at 10 µM (Renilla; [2]) | fold induction at 0.5 µM (HEK293 pGL4; [4]) | fold induction at 2 µM (HEK293 pGL4; [5]) | fold induction at 2 µM (HEK293 pGL4; [9]) | fold induction at 10 µM (HEK293 pGL4; [10]) | fold induction at 0.5 µM (HEK293 pGL4; [12]) | fold induction at 2 µM (HEK293 pGL4; [13])
0.9: Firefly LBD, cmpd/DMSO (mean) (NR2F6 LBD; 0.5 uM) | Firefly LBD, cmpd/DMSO (mean) (NR2F6 LBD; 2 uM)
0.8: Firefly, F4, 1% FBS, cmpd/DMSO (mean) (NR2F6; 2 uM)
2: fold induction at 40 µM (HEK293 pGL4; [7])
1.6: fold induction at 40 µM (HEK293 pGL4; [11]) | fold induction at 10 µM (HEK293 pGL4; [14])
0.7: Firefly, F4, 10% FBS, cmpd/DMSO (mean) (NR2F6; 10 uM)
1.5: Firefly, F4, 10% FBS, cmpd/DMSO (mean) (NR2F6; 0.5 uM) | fold induction at 40 µM (Renilla; [2])

CC(=O)N1CCN([C@H]2CS(=O)(=O)C[C@@H]2S(=O)(=O)c2ccc(F)c(C)c2)CC1 [Compound D116]
1: fold induction at 0.5 µM (Renilla; [1]) | fold induction at 0.5 µM (Renilla; [2]) | fold induction at 10 µM (Renilla; [2]) | fold induction at 0.5 µM (HEK293 pGL4; [4]) | fold induction at 2 µM (HEK293 pGL4; [9])
1.2: Firefly F4, cmpd/DMSO (mean) (NR2F6; 40 uM) | Firefly, F4, 1% FBS, cmpd/DMSO (mean) (NR2F6; 0.5 uM) | fold induction at 40 µM (Renilla; [2]) | fold induction at 40 µM (Renilla; [3]) | fold induction at 2 µM (HEK293 pGL4; [5]) | Firefly LBD, cmpd/DMSO (mean) (NR2F6 LBD; 2 uM) | Firefly LBD, cmpd/DMSO (mean) (NR2F6 LBD; 40 uM)
1.3: Firefly, F4, 10% FBS, cmpd/DMSO (mean) (NR2F6; 10 uM)
0.9: Firefly, F4, 1% FBS, cmpd/DMSO (mean) (NR2F6; 2 uM) | Firefly, F4, 1% FBS, cmpd/DMSO (mean) (NR2F6; 10 uM) | fold induction at 2 µM (Renilla; [3]) | fold induction at 10 µM (Renilla; [3]) | Firefly LBD, cmpd/DMSO (mean) (NR2F6 LBD; 0.5 uM)
1.5: Firefly F4, cmpd/DMSO (mean) (NR2F6; 0.5 uM) | fold induction at 40 µM (HEK293 pGL4; [15])
1.4: Firefly F4, cmpd/DMSO (mean) (NR2F6; 10 uM) | Firefly, F4, 10% FBS, cmpd/DMSO (mean) (NR2F6; 2 uM) | fold induction at 40 µM (HEK293 pGL4; [7]) | fold induction at 40 µM (HEK293 pGL4; [11]) | fold induction at 10 µM (HEK293 pGL4; [14])
1.6: fold induction at 0.5 µM (HEK293 pGL4; [8])
1.7: fold induction at 10 µM (HEK293 pGL4; [10])
1.1: Firefly, F4, 1% FBS, cmpd/DMSO (mean) (NR2F6; 40 uM) | Firefly, F4, 10% FBS, cmpd/DMSO (mean) (NR2F6; 0.5 uM) | fold induction at 2 µM (Renilla; [1]) | fold induction at 10 µM (Renilla; [1]) | fold induction at 40 µM (Renilla; [1]) | fold induction at 2 µM (Renilla; [2]) | fold induction at 10 µM (HEK293 pGL4; [6]) | fold induction at 0.5 µM (HEK293 pGL4; [12]) | fold induction at 2 µM (HEK293 pGL4; [13]) | Firefly LBD, cmpd/DMSO (mean) (NR2F6 LBD; 10 uM)
0.8: Firefly, F4, 10% FBS, cmpd/DMSO (mean) (NR2F6; 40 uM) | fold induction at 0.5 µM (Renilla; [3])
1.0: Firefly F4, cmpd/DMSO (mean) (NR2F6; 2 uM)
